The record followed here is patent US10561638B2, “Methods for treating dependence” (Biotie Therapies, Inc., priority 2007, dated 2020).

One data set has as its target α1A adrenoceptors (Homo sapiens, UniProt P35348). As to the kind of experiment: Radioligand binding assay. The procedure:
(§1) The activity of nepicastat at twelve selected enzymes and receptors was determined using established assays. Binding data were analyzed by iterative curve-fitting to a four parameter logistic equation. Ki values were calculated from IC50 values using the Cheng-Prusoff equation. Enzyme inhibitory activity was expressed as IC50 (concentration required to produce 50% inhibition of enzyme activity).
(§2) The activity of nepicastat at eleven different enzymes was determined using established assays. The affinity of nepicastat for thirteen selected receptors was determined by radioligand binding assays using standard filtration techniques and membrane preparations. Binding data were analyzed by iterative curve fitting to a four parameter logistic equation. Ki values were calculated using the Cheng-Prusoff equation.

The next data set deals with α1B adrenoceptors (Homo sapiens, UniProt P35368). In words: Radioligand binding assay. The procedure: as §1, §2
Chain of α1B adrenoceptors (P35368 whole entry): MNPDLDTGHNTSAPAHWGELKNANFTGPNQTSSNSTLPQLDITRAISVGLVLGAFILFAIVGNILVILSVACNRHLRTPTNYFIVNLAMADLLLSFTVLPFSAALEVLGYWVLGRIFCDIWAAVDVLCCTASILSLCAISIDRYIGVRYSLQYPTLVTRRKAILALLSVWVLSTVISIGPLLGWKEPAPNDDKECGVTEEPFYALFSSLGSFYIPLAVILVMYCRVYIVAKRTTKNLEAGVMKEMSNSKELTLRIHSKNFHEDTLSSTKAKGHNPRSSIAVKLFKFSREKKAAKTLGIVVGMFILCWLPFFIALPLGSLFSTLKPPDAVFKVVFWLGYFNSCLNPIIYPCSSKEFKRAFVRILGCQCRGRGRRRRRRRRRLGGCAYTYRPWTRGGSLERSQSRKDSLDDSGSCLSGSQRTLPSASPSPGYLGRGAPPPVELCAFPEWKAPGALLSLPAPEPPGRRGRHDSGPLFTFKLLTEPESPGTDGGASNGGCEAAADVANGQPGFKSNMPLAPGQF
A further data set deals with α2A adrenoceptors (Homo sapiens, UniProt P08913). As to the kind of experiment: Radioligand binding assay. The procedure:
as §1, §2

A further data set has as its target α2B adrenoceptors (Homo sapiens, UniProt P18089). In words: Radioligand binding assay. The method, then: as §1, §2
The next data set deals with β1 adrenoceptors (Homo sapiens, UniProt P08588). In words: Radioligand binding assay. The procedure:
as §1, §2

Another data set has as its target β2 adrenoceptors (Homo sapiens, UniProt P07550). As to the kind of experiment: Radioligand binding assay. The procedure:
as §1, §2

Another data set has as its target μ opioid receptors (Homo sapiens, UniProt P35372). In words: Radioligand binding assay. The method, then: as §1, §2
Data set [1] deals with plasma noradrenaline, dopamine and epinephrine. As to the kind of experiment: Plasma catecholamines in beagle dogs, 2 mg/kg b.i.d. for 15 days. It counts as in vivo. The procedure: Male beagle dogs were randomized to be orally dosed with either empty capsules (control) or nepicastat (2 mg·kg^−1, po, b.i.d.) for 15 days. Daily venous blood samples were drawn, six hours after the first dose, for measurement of plasma concentrations of dopamine and noradrenaline. The samples were collected in tubes containing heparin and glutathione, centrifuged at −4° C. and the separated plasma was stored at −70° C. until analysis. […] When compared to the control group, nepicastat (2 mg·kg^−1, b.i.d, po) produced significant decreases in plasma concentrations of noradrenaline and increases in plasma concentrations of dopamine and dopamine/noradrenaline ratio.
The chronic effects of nepicastat (14.5 day treatment) on the plasma DA/NE ratio were investigated in normal dogs. Animals were randomized to receive, orally, either placebo (empty capsule) or nepicastat (2 mg/kg, b.i.d) for 14.5 days. Daily blood samples were drawn, 6 h after the first dose, for the measurement of plasma concentrations of DA and NE. The samples were collected in tubes containing heparin and glutathione, centrifuged at −4° C. and stored at −70° C. until analysis.
Male Beagle dogs (Marshall farms, North Rose, N.Y.) weighing between 9-16 kg were used in the study. The animals were allowed water ad libitum and given food once daily at ˜10.00 AM. Animals were randomly assigned to one of the following treatment groups (n=8/group): placebo (empty capsule), or nepicastat at 2 mg/kg b.i.d (4 mg/kg/day). Each animal received 2 doses daily, morning and afternoon (8-10 hours apart). Daily blood samples (10 ml) were drawn 6 h after the AM dose for measurement of plasma levels of nepicastat and catecholamines. The blood was collected in tubes containing heparin and glutathione and centrifuged at −4° C. within 1 h of collection. The plasma was separated and divided into two samples, one for the measurement of plasma catecholamines and the other for analysis of nepicastat.
Plasma norepinephrine (NE), dopamine (DA) and epinephrine (EPI) were analyzed by HPLC using electrochemical detection. Plasma concentration of nepicastat was determined by HPLC using electrochemical detection.
The BQL (below quantitation limit) in the DA concentration of dog 1 at day 10 was set to 0; 1n (0) was set to missing. The analysis was performed using a mixed model (using PROC MIXED) with the day and treatment categorical variables being fixed and the dog within treatment being a random factor. For the fixed effects, the interaction between the day and the treatment was included, since the difference between the drug and placebo groups varies from day to day. Contrasts were calculated using the CONTRAST statement, which correctly takes into account the error terms for each particular contrast. In particular, the contrasts comparing the treatment group to the […] uses the dog mean square for its error term, while the comparisons used to establish steady state are all within dog comparisons, and require the error mean square.
The time period of steady state was calculated using the Helmert transformation (cf. SAS PROC GLM manual). These transformations compare each treatment mean with the average of the treatment means of the time points following. The steady state period is defined to start at the first time point following the maximum time at which the Helmert contrast is statistically significant. However, since this method can fail to detect a smoothly changing process, as appears might be the case here, the slope of the analyte concentration during the steady state period also was calculated. The slope during the steady state period was calculated for each dog individually, yielding one slope per animal. Univariate statistics on the slopes were then calculated, with Normal theory confidence intervals built on the mean slope, and the hypothesis of slope equaling zero was tested, and its Normal theory p-value was calculated. […]

Another data set has as its system normal dogs. In words: Cardiovascular effects of i.v. dosing in dogs. It counts as in vivo. The following applies: anesthetized dogs, 1-10 mg/kg i.v., up to five hours.

Chain of β2 adrenoceptors (P07550 whole entry): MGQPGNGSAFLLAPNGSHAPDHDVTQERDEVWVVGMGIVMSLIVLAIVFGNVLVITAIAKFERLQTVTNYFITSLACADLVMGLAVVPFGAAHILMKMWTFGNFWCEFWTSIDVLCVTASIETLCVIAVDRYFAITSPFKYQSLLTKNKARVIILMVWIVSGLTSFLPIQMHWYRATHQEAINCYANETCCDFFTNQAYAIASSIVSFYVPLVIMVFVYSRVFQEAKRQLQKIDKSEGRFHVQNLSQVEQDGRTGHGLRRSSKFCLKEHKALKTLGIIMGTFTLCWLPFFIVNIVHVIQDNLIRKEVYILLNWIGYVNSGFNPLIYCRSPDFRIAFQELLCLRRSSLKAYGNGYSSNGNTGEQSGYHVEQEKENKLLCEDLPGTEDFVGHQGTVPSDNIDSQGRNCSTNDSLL
Chain of α2A adrenoceptors (P08913 whole entry): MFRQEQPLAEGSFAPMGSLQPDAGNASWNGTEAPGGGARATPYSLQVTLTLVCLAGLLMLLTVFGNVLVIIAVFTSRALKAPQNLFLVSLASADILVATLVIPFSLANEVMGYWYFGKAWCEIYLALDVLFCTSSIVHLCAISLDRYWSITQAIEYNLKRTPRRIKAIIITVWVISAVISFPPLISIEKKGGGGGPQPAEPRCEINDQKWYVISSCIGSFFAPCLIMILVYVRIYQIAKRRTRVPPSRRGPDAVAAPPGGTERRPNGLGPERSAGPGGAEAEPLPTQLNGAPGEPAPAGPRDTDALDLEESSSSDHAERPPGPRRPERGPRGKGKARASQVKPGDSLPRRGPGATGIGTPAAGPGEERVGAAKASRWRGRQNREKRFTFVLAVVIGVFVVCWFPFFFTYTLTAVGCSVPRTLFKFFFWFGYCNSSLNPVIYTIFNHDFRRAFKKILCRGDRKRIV
Chain of β1 adrenoceptors (P08588 whole entry): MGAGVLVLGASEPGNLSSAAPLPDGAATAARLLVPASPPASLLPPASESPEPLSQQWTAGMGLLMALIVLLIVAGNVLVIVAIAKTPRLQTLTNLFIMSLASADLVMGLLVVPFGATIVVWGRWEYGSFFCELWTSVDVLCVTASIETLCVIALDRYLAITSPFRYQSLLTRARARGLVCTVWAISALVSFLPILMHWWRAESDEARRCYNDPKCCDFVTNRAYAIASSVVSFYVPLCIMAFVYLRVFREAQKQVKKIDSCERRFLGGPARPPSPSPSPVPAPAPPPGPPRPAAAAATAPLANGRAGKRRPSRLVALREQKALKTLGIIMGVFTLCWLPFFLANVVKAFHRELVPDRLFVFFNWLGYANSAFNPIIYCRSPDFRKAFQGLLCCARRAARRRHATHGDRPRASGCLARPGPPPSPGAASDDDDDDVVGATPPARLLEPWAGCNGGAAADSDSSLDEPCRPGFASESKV
Chain of α2B adrenoceptors (P18089 whole entry): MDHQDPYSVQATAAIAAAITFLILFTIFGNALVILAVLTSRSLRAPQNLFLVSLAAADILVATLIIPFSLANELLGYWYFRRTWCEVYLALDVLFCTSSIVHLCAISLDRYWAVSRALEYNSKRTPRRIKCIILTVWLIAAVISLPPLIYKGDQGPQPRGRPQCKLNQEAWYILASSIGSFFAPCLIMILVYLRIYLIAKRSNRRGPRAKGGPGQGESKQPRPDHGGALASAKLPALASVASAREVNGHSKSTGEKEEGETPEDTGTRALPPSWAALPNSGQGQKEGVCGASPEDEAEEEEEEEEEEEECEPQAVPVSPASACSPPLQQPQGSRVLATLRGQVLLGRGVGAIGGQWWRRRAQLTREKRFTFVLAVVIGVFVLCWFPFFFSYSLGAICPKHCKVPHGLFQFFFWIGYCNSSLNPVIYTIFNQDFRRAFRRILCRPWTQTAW
Chain of μ opioid receptors (P35372 whole entry): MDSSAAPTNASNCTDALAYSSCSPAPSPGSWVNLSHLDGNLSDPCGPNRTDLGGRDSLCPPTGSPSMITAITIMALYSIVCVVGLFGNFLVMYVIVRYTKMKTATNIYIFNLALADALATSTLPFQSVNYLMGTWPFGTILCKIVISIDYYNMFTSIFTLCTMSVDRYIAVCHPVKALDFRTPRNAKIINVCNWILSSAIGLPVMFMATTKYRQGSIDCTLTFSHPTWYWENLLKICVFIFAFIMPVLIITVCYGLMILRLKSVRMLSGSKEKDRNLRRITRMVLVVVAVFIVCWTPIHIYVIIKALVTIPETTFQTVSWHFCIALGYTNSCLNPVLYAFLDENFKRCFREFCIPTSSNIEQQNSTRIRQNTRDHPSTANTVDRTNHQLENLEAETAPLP
Chain of α1A adrenoceptors (P35348 whole entry): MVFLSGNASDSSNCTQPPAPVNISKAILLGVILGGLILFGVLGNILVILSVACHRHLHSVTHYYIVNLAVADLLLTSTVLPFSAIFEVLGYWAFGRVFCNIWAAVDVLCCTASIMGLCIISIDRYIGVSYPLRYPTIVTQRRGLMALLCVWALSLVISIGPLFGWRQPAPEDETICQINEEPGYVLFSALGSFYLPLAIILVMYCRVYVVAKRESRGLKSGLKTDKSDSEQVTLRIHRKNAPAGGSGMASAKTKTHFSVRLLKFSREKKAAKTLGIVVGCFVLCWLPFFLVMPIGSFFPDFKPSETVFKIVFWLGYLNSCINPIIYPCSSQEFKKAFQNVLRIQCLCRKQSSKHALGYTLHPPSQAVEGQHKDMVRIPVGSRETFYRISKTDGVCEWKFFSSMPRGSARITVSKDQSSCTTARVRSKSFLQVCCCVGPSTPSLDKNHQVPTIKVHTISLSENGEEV

Broadly, the Ki is a dissociation constant, usually derived from enzyme kinetics or from competition with a known ligand. A higher Ki goes with lower affinity. `Cl.NCc1c[nH]c(=S)n1[C@H]1CCc2c(F)cc(F)cc2C1` [nepicastat, (S)-5-Aminomethyl-1-(5,7-difluoro-1,2,3,4-tetrahydronaphth-2-yl)-2,3-dihydro-2-thioxo-1H-imidazole hydrochloride] yielded a Ki on α1A adrenoceptors of over 10 µM. On α1B adrenoceptors, this compound had a Ki of over 10 µM. In addition, the Ki at α2A adrenoceptors was over 10 µM. On α2B adrenoceptors, this compound registered a Ki of over 10 µM. Further, on β1 adrenoceptors, the Ki is over 10 µM. The Ki on β2 adrenoceptors was over 10 µM. The Ki at μ opioid receptors was over 10 µM. In data set [1], the “day of peak decrease in plasma EPI” value came out at 8 days, the “day of peak decrease in plasma NE” value was 6 days, the “day of peak increase in plasma DA” value turned out to be 7 days and the “day of peak increase in plasma DA/NE ratio” value came to 6 days. Besides, in [1], the “days of dosing until decrease in plasma noradrenaline attained significance” value is on record as 4 days, the “decrease in plasma EPI vs placebo” value is 1.91 fold, the “decrease in plasma NE vs placebo” value worked out at 2.1 fold and the “increase in plasma DA vs placebo” value turned out to be 7.5 fold. Further, in [1], the “increase in plasma DA/NE ratio vs placebo” value amounted to 13.6 fold, the “time of peak effect on plasma DA/NE ratio” value lay in the range of 6 to 7 days, the “time to steady-state of effect on plasma DA” value is listed as about 8 days post-dose and the “time to steady-state of effect on plasma EPI” value is reported as about 6 days post-dose. For the same compound, the “time to steady-state of effect on plasma NE” value in data set [1] was “approximately 4 days post-dose”. In addition, the cardiovascular effects entry in the data set with normal dogs was “no cardiovascular effects”.
